In the data set the test system is Human TK6 cells. The experiment in a line: Duplex sequencing (DS) of human TK6 cells treated with genotoxic compounds: putative DNA circle frequency and mutation frequency. The format is cell-based. Conditions: detected by DS, dose groups vs untreated group, proxy for clastogenicity. The method, then:
To assess whether DNA circle frequency is a proxy for clastogenicity, DS data for various genotoxic agents were re-analyzed. ENU is a well-known potent mutagen and clastogen.
Human TK6 cells were treated with different potentially genotoxic compounds. DS libraries were prepared with 500 ng of DNA input. […] FIG. 10A-10B show the frequency of putative circles, calculated as frequency=(#circles detected)/(#duplex bases sequenced).

`CCN(N=O)C(N)=O` [ENU]: the “frequency of putative DNA circles per duplex base pair (#circles detected)/(#duplex bases sequenced)” value is on record as “increased candidate DNA circle frequency in a dose-dependent manner, reaching statistical significance in the highest dose group”.

For the origin of these results see patent US20260258502A1, “METHODS AND REAGENTS FOR DETECTION OF CIRCULAR DNA MOLECULES IN BIOLOGICAL SAMPLES” (priority 2022, published 2026).
